Results: publication PMC6440464 (PeerJ, 2019)
“And” between values parts separate entries of the source, which are not always exact repeats. Identical values can stand only once.

Assay: Pharmacokinetics study after separate oral administration in rats (HPLC-MS of plasma)
Type: in vivo, Sprague-Dawley rats
Details: for Plasma concentrations: individual rats NO. 1-5; for AUC(0-t) / Cmax / Tmax / t1/2z: labelled substance = analyte, individual rats No1-No5
Procedure: A total of 15 SPF Sprague-Dawley rats (SD, male, 190–210 g) were provided by Sino-British Sippr/BK Lab Animal Company Ltd. (Shanghai, China). The rats were kept in standard conditions (22–26 °C; 40–60% relative humidity; 12 h light/dark cycle). Throughout the rearing period, the animals had access to food and water ad libitum. Animal experiments were conducted in accordance with the standard ethical guidelines of the Laboratory Animal Management Committee of Jiangsu Province (SYXK (SU) 2016-0011).
Following 1 week of adaptation, the rats were fasted for about 12 h before dosing, with free access to water. […] After administration of the first dose, blood samples were taken from the retro-orbital vein at 0, 5, 15, 30, 60, 90, 120, 180, 240, 360, 480, and 1,440 min and collected in heparinized tubes. The samples were centrifuged at 3,500 rpm for 10 min at 4 °C and the plasma was stored at −80 °C until analysis.
An Agilent 1,200 series HPLC system (Agilent Technologies, Waldbronn, Germany) equipped with a quaternary pump on-line degasser, auto-sampler and column oven, and an SL G1946D quadruple mass spectrometer (Agilent Technologies, Santa Clara, CA, USA) equipped with an electrospray ionization (ESI) source, were used for separation and detection. Data were acquired and analyzed using Agilent ChemStation Software Version A.01.00 (Agilent Technologies, Santa Clara, CA, USA).
The separation was carried out with an Amethyst C18-H column (150 × 4.6 mm, 5 μm, Sepax Technologies, Newark, DE, USA) with a guard column SB-C18 (10 × 4.6 mm, 5 μm, Phenomenex Technologies, Torrance, USA) at a constant temperature of 25 °C.
The mass spectra were acquired using ESI interfaced to a single quadrupole mass spectrometer. The ionization conditions were as follows: drying gas (N2) flow rate of 11 L/min, drying gas temperature of 350 °C, nebulizing gas (N2) pressure of 35 psi, capillary voltage of 3,500 V, quad temperature of 100 °C, and fragment voltage of 110 V. A series of m/z were monitored using a timed program according to the retention times and characteristic ions for the corresponding HPLC-MS peak obtained by scanning from m/z 100–1,000 in the standard sample.
Briefly, an aliquot of plasma sample (100 μL) was spiked with 5% formic acid (10 μL) in centrifuge tube. Subsequently, hydrochloric acid (2 mol/L, 10 μL) and IS solution (960.00 ng/mL, 20 μL) were added. Then ethyl acetate/n-butyl alcohol (1:1 v/v; 1,000 μL) was used to extract the components. The samples were then homogenized by vortex mixing and centrifuged for 10 min at 14,000 rpm. After centrifugation, 800 μL of supernatant was transferred to another centrifuge tube and the sample was evaporated to dryness. The residues were dissolved in 100 μL of methanol and centrifuged for 10 min at 12,000 rpm. 50 μL of the supernatant was transferred to the vial and an aliquot of 5 μL was injected into the HPLC-MS system for analysis.
DAS 2.0 (Chinese Pharmacological Association, Shanghai, China) was used to calculate the pharmacokinetic parameters using the non-compartment model, including the area under curve (AUC), mean residence time (MRT), half-life ( t1/2z), clearance rate (CL), maximum plasma concentration (Cmax), and time (Tmax). All results are expressed as mean ± standard deviation (SD). One way analysis of variance followed by […] was used for comparison of different groups using Graph pad prism 5 software. A p-value of <0.05 was considered statistically significant.

[1] = IQ group (oral IQ 50 mg/kg), rat plasma
[2] = QG group (oral QG 50 mg/kg), rat plasma
[3] = Qr group (oral Qr 50 mg/kg), rat plasma

With `O=c1c(O)c(-c2ccc(O)c(O)c2)oc2cc(O)cc(O)c12` [Qr, Quercetin] the Plasma concentrations (IQ group (oral IQ 50 mg/kg), 5 min) was 97 ng/mL and 72.1 ng/mL, the Plasma concentrations (IQ group (oral IQ 50 mg/kg), 120 min) was 1913.8 ng/mL and 3969.5 ng/mL and 3663.4 ng/mL and 3592.6 ng/mL and 4482.8 ng/mL and the Plasma concentrations (IQ group (oral IQ 50 mg/kg), 180 min) was 2424.7 ng/mL and 3384.3 ng/mL and 2628.6 ng/mL and 529.3 ng/mL and 3851.1 ng/mL. For the same compound, the Plasma concentrations (IQ group (oral IQ 50 mg/kg), 240 min) was 1940 ng/mL and 3381.2 ng/mL and 2408.4 ng/mL and 1320.4 ng/mL and 1250.9 ng/mL, the Plasma concentrations (IQ group (oral IQ 50 mg/kg), 360 min) was 1313.4 ng/mL and 2984 ng/mL and 4511 ng/mL and 1879.1 ng/mL and 1080.1 ng/mL and the Plasma concentrations (IQ group (oral IQ 50 mg/kg), 480 min) was 1825.8 ng/mL and 2829.2 ng/mL and 642.1 ng/mL and 975.9 ng/mL and 503.3 ng/mL. The Plasma concentrations (IQ group (oral IQ 50 mg/kg), 1440 min) was 90.3 ng/mL and 1333.2 ng/mL and 1663.4 ng/mL and 210.4 ng/mL and 61.1 ng/mL, the “AUC(0-t)” value [1] was 2661.03 mg·min/L and 1721.03 mg·min/L and 1261.04 mg·min/L and 1844.61 mg·min/L and 3575.83 mg·min/L and the Cmax [1] was 8460 ng/mL and 10370.3 ng/mL and 4575 ng/mL and 4452 ng/mL and 5147 ng/mL. The Tmax [1] was 30 min and 60 min, the t1/2z [1] was 2.34307 h and 7.45293 h and 4.46562 h and 15.5735 h and the “Detection in rat plasma” value (IQ group: oral IQ 50 mg/kg) was “measured”. The Plasma concentrations (QG group (oral QG 50 mg/kg), 5 min) was 0 ng/mL, the Plasma concentrations (QG group (oral QG 50 mg/kg), 120 min) was 0 ng/mL and 178 ng/mL and 350 ng/mL and 264.3 ng/mL and 91.3 ng/mL and the Plasma concentrations (QG group (oral QG 50 mg/kg), 180 min) was 1405.7 ng/mL and 1522.4 ng/mL and 4112 ng/mL and 56.4 ng/mL and 1551 ng/mL. The Plasma concentrations (QG group (oral QG 50 mg/kg), 240 min) was 2385.9 ng/mL and 4434.6 ng/mL and 6808.5 ng/mL and 1445.9 ng/mL and 1915.9 ng/mL, the Plasma concentrations (QG group (oral QG 50 mg/kg), 360 min) was 997.6 ng/mL and 4127.1 ng/mL and 4268 ng/mL and 6817.8 ng/mL and 3639.1 ng/mL and the Plasma concentrations (QG group (oral QG 50 mg/kg), 480 min) was 880.9 ng/mL and 5383.5 ng/mL and 6785.2 ng/mL and 4353.5 ng/mL and 4449.8 ng/mL. For the same compound, the Plasma concentrations (QG group (oral QG 50 mg/kg), 1440 min) was 254.4 ng/mL and 878.4 ng/mL and 519.9 ng/mL and 325 ng/mL and 366.2 ng/mL, the “AUC(0-t)” value [2] was 1100.93 mg·min/L and 4341.94 mg·min/L and 5313.01 mg·min/L and 3484.77 mg·min/L and 3287.74 mg·min/L and the Cmax [2] was 2385.9 ng/mL and 5384 ng/mL and 6808 ng/mL and 6818 ng/mL and 4450 ng/mL. The Tmax [2] was 480 min (2×) and 240 min and 360 min, the t1/2z [2] was 9.05187 h and 8.35598 h and 5.58873 h and 4.1639 h and 3.28813 h and the Plasma concentrations (Qr group (oral Qr 50 mg/kg), 5 min) was 640.7 ng/mL and 69.5 ng/mL and 57.3 ng/mL and 802.4 ng/mL and 171.1 ng/mL. The Plasma concentrations (Qr group (oral Qr 50 mg/kg), 120 min) was 4624.9 ng/mL and 4603.8 ng/mL and 5199.9 ng/mL and 1294.5 ng/mL and 3649 ng/mL, the Plasma concentrations (Qr group (oral Qr 50 mg/kg), 180 min) was 3310.6 ng/mL and 4410.7 ng/mL and 6178.3 ng/mL and 1059.8 ng/mL and 3541.5 ng/mL and the Plasma concentrations (Qr group (oral Qr 50 mg/kg), 240 min) was 1969.1 ng/mL and 3087.5 ng/mL and 1750.4 ng/mL and 2254.1 ng/mL. For the same compound, the Plasma concentrations (Qr group (oral Qr 50 mg/kg), 360 min) was 3069.3 ng/mL and 1565.6 ng/mL and 2529.6 ng/mL and 1025.9 ng/mL and 1740.7 ng/mL, the Plasma concentrations (Qr group (oral Qr 50 mg/kg), 480 min) was 1701.5 ng/mL and 2705.9 ng/mL and 3008.7 ng/mL and 1156.8 ng/mL and 828.8 ng/mL and the Plasma concentrations (Qr group (oral Qr 50 mg/kg), 1440 min) was 416.7 ng/mL and 431.9 ng/mL and 601.2 ng/mL and 220.4 ng/mL and 329.6 ng/mL. For the same compound, the “AUC(0-t)” value [3] was 2664.65 mg·min/L and 3200.67 mg·min/L and 3831.17 mg·min/L and 1368.81 mg·min/L and 1887.27 mg·min/L, the Cmax [3] was 7855 ng/mL and 9701 ng/mL and 9916 ng/mL and 3579 ng/mL and 6280 ng/mL and the Tmax [3] was 90 min and 30 min. For the same compound, the t1/2z [3] was 6.20775 h and 8.55312 h and 6.68888 h and 7.31962 h, the “Detection in rat plasma” value (Qr group: oral Qr 50 mg/kg) was “could be detected in rat plasma” and the CL (Qr group: oral Qr 50 mg/kg, rat plasma, mean ± SD, n = 5) was 20 ± 8 mL/min/kg.
